# Legend:
# Assay in all cases: minimal inhibitory concentration, two-fold agar dilution
# Format in all cases: cell-based
# [1] = test system: Acinetobacter calcoaceticus ATCC 15473; conditions: ATCC15473, Muller-Hinton agar, 37°C, 20 hours, read-out: MIC values against the standard strains
# Method: (§1) These MIC values were taken by employing a two-fold dilution method: that is, two-fold serial dilutions of each of the test compounds were made and dispersed in a Muller-Hinton agar medium; 2µl of the standard test strain which had the 10⁷ CFU(Colony Forming Unit) per ml was inoculated on the medium; and these were incubated at 37°C for 20 hours.
# [2] = test system: Bacillus cereus ATCC 11778; conditions: ATCC11778, Muller-Hinton agar, 37°C, 20 hours, read-out: MIC values against the standard strains
# Method: as §1
# [3] = test system: Bacillus megaterium ATCC 9885; conditions: Priestia megaterium, ATCC9885; Muller-Hinton agar; 37°C; 20 hours; read-out: MIC values against the standard strains
# Method: as §1
# [4] = test system: Citrobacter freundii ATCC 8090; conditions: ATCC8090, Muller-Hinton agar, 37°C, 20 hours, read-out: MIC values against the standard strains
# Method: as §1
# [5] = test system: Enterobacter aerogenes ATCC 29751; conditions: Klebsiella aerogenes, ATCC29751; Muller-Hinton agar; 37°C; 20 hours; read-out: MIC values against the standard strains
# Method: as §1
# [6] = test system: Enterobacter cloacae ATCC 27508; conditions: ATCC27508, Muller-Hinton agar, 37°C, 20 hours, read-out: MIC values against the standard strains
# Method: as §1
# [7] = test system: Escherichia coli ATCC 10536; conditions: ATCC10536, Muller-Hinton agar, 37°C, 20 hours, read-out: MIC values against the standard strains
# Method: as §1
# [8] = test system: Escherichia coli ATCC 25922; conditions: ATCC25922, Muller-Hinton agar, 37°C, 20 hours, read-out: MIC values against the standard strains
# Method: as §1
# [9] = test system: Klebsiella pneumoniae ATCC 10031; conditions: ATCC10031, Muller-Hinton agar, 37°C, 20 hours, read-out: MIC values against the standard strains
# Method: as §1
# [10] = test system: Micrococcus luteus ATCC 9341; conditions: ATCC9341, Muller-Hinton agar, 37°C, 20 hours, read-out: MIC values against the standard strains
# Method: as §1
# [11] = test system: Morganella morganii ATCC 8076h; conditions: ATCC8076H, Muller-Hinton agar, 37°C, 20 hours, read-out: MIC values against the standard strains
# Method: as §1
# [12] = test system: Proteus mirabilis ATCC 25933; conditions: ATCC25933, Muller-Hinton agar, 37°C, 20 hours, read-out: MIC values against the standard strains
# Method: as §1
# [13] = test system: Proteus vulgaris ATCC 6059; conditions: ATCC6059, Muller-Hinton agar, 37°C, 20 hours, read-out: MIC values against the standard strains
# Method: as §1
# [14] = test system: Providencia rettgeri ATCC 9250; conditions: ATCC9250, Muller-Hinton agar, 37°C, 20 hours, read-out: MIC values against the standard strains
# Method: as §1
# [15] = test system: Pseudomonas aeruginosa ATCC 10145; conditions: ATCC10145, Muller-Hinton agar, 37°C, 20 hours, read-out: MIC values against the standard strains
# Method: as §1
# [16] = test system: Pseudomonas aeruginosa ATCC 25619; conditions: ATCC25619, Muller-Hinton agar, 37°C, 20 hours, read-out: MIC values against the standard strains
# Method: as §1
# [17] = test system: Pseudomonas aeruginosa ATCC 27853; conditions: ATCC27853, Muller-Hinton agar, 37°C, 20 hours, read-out: MIC values against the standard strains
# Method: as §1
# [18] = test system: Salmonella typhimurium ATCC 14028; conditions: Salmonella enterica; Muller-Hinton agar; 37°C; 20 hours; read-out: MIC values against the standard strains
# Method: as §1
# [19] = test system: Serratia marcescens ATCC 27117; conditions: ATCC27117, Muller-Hinton agar, 37°C, 20 hours, read-out: MIC values against the standard strains
# Method: as §1
# [20] = test system: Shigella flexneri ATCC 11836; conditions: ATCC11836, Muller-Hinton agar, 37°C, 20 hours, read-out: MIC values against the standard strains
# Method: as §1
# [21] = test system: Shigella sonnei ATCC 11060; conditions: ATCC11060, Muller-Hinton agar, 37°C, 20 hours, read-out: MIC values against the standard strains
# Method: as §1
# [22] = test system: Staphylococcus aureus ATCC 10537; conditions: ATCC10537, Muller-Hinton agar, 37°C, 20 hours, read-out: MIC values against the standard strains
# Method: as §1
# [23] = test system: Staphylococcus aureus ATCC 6538p; conditions: ATCC6538P, Muller-Hinton agar, 37°C, 20 hours, read-out: MIC values against the standard strains
# Method: as §1
# [24] = test system: Staphylococcus epidermidis ATCC 12228; conditions: ATCC12228, Muller-Hinton agar, 37°C, 20 hours, read-out: MIC values against the standard strains
# Method: as §1
# [25] = test system: Streptococcus faecalis ATCC 29212; conditions: Enterococcus faecalis, ATCC29212; Muller-Hinton agar; 37°C; 20 hours; read-out: MIC values against the standard strains
# Method: as §1
smiles,measurement,setting,value
"C[n+]1c(-c2ccccc2)cc(N)nc1SCC1=C(C(=O)[O-])N2C(=O)[C@@H](NC(=O)/C(=N\OC(C)(C)C(=O)O)c3csc(N)n3)[C@H]2SC1 [Example 20, 7-[(Z)-2-(2-aminothiazol-4-yl)-2-(carboxyprop-2-oxyimino)acetamido]-3-(4-amino-6-phenyl-1-methylpyrimidinium-2-yl)thiomethyl-3-cephem-4-carboxylate]",MIC,[1],64 µg/mL
same,MIC,[2],64 µg/mL
same,MIC,[3],0.13 µg/mL
same,MIC,[4],0.5 µg/mL
same,MIC,[5],4 µg/mL
same,MIC,[6],0.13 µg/mL
same,MIC,[7],0.25 µg/mL
same,MIC,[8],0.5 µg/mL
same,MIC,[9],0.13 µg/mL
same,MIC,[10],0.25 µg/mL
same,MIC,[11],≤ 0.008 µg/mL
same,MIC,[12],0.25 µg/mL
same,MIC,[13],0.5 µg/mL
same,MIC,[14],≤ 0.008 µg/mL
same,MIC,[15],16 µg/mL
same,MIC,[16],2 µg/mL
same,MIC,[17],4 µg/mL
same,MIC,[18],1 µg/mL
same,MIC,[19],2 µg/mL
same,MIC,[20],0.13 µg/mL
same,MIC,[21],0.25 µg/mL
same,MIC,[22],2 µg/mL
same,MIC,[23],4 µg/mL
same,MIC,[24],1 µg/mL
same,MIC,[25],> 128 µg/mL
"CCO/N=C(\C(=O)N[C@@H]1C(=O)N2C(C(=O)[O-])=C(CSc3nc(N)c(N)c[n+]3N)CS[C@H]12)c1csc(N)n1 [Example 46, 7-[(Z)-2-(2-aminothiazol-4-yl)-2-(ethoxyimino)acetamido]-3-(1,4,5-triaminopyrimidinium-2-yl)thiomethyl-3-cephem-4-carboxylate]",MIC,[1],4 µg/mL
same,MIC,[2],64 µg/mL
same,MIC,[3],0.063 µg/mL
same,MIC,[4],0.063 µg/mL
same,MIC,[5],1 µg/mL
same,MIC,[6],≤ 0.008 µg/mL
same,MIC,[7],0.031 µg/mL
same,MIC,[8],0.031 µg/mL
same,MIC,[9],0.063 µg/mL
same,MIC,[10],0.031 µg/mL
same,MIC,[11],0.016 µg/mL
same,MIC,[12],0.25 µg/mL
same,MIC,[13],0.25 µg/mL
same,MIC,[14],0.031 µg/mL
same,MIC,[15],8 µg/mL
same,MIC,[16],0.5 µg/mL
same,MIC,[17],4 µg/mL
same,MIC,[18],0.25 µg/mL
same,MIC,[19],0.25 µg/mL
same,MIC,[20],0.031 µg/mL
same,MIC,[21],0.031 µg/mL
same,MIC,[22],0.13 µg/mL
same,MIC,[23],0.25 µg/mL
same,MIC,[24],0.031 µg/mL
same,MIC,[25],8 µg/mL
"CCO/N=C(\C(=O)N[C@@H]1C(=O)N2C(C(=O)[O-])=C(CSc3nc(N)c(C(=O)O)c[n+]3C)CS[C@H]12)c1csc(N)n1 [Example 25, 7-[(Z)-2-(2-aminothiazol-4-yl)-2-(ethoxyimino)acetamido]-3-(4-amino-5-carboxy-1-methylpyrimidinium-2-yl)thiomethyl-3-cephem-4-carboxylate]",MIC,[1],32 µg/mL
same,MIC,[2],64 µg/mL
same,MIC,[3],0.25 µg/mL
same,MIC,[4],0.063 µg/mL
same,MIC,[5],1 µg/mL
same,MIC,[6],≤ 0.008 µg/mL
same,MIC,[7],0.031 µg/mL
same,MIC,[8],0.031 µg/mL
same,MIC,[9],0.016 µg/mL
same,MIC,[10],0.063 µg/mL
same,MIC,[11],≤ 0.008 µg/mL
same,MIC,[12],0.25 µg/mL
same,MIC,[13],0.25 µg/mL
same,MIC,[14],≤ 0.008 µg/mL
same,MIC,[15],32 µg/mL
same,MIC,[16],2 µg/mL
same,MIC,[17],32 µg/mL
same,MIC,[18],0.13 µg/mL
same,MIC,[19],0.5 µg/mL
same,MIC,[20],0.016 µg/mL
same,MIC,[21],0.063 µg/mL
same,MIC,[22],0.5 µg/mL
same,MIC,[23],1 µg/mL
same,MIC,[24],0.5 µg/mL
same,MIC,[25],> 128 µg/mL
CC(C)(O/N=C(\C(=O)N[C@@H]1C(=O)N2C(C(=O)[O-])=C(CSc3nc(N)cc[n+]3N)CS[C@H]12)c1csc(N)n1)C(=O)O [Example 43],MIC,[1],2 µg/mL
same,MIC,[2],128 µg/mL
same,MIC,[3],0.5 µg/mL
same,MIC,[4],0.063 µg/mL
same,MIC,[5],0.5 µg/mL
same,MIC,[6],≤ 0.008 µg/mL
same,MIC,[7],0.063 µg/mL
same,MIC,[8],0.063 µg/mL
same,MIC,[9],0.063 µg/mL
same,MIC,[10],0.5 µg/mL
same,MIC,[11],≤ 0.008 µg/mL
same,MIC,[12],0.031 µg/mL
same,MIC,[13],0.031 µg/mL
same,MIC,[14],≤ 0.008 µg/mL
same,MIC,[15],2 µg/mL
same,MIC,[16],1 µg/mL
same,MIC,[17],1 µg/mL
same,MIC,[18],0.13 µg/mL
same,MIC,[19],0.13 µg/mL
same,MIC,[20],0.031 µg/mL
same,MIC,[21],0.063 µg/mL
same,MIC,[22],2 µg/mL
same,MIC,[23],8 µg/mL
same,MIC,[24],2 µg/mL
same,MIC,[25],> 128 µg/mL
"CC(C)(O/N=C(\C(=O)N[C@@H]1C(=O)N2C(C(=O)[O-])=C(CSc3nc(N)c(N)c[n+]3N)CS[C@H]12)c1csc(N)n1)C(=O)O [Example 47, 7-[(Z)-2-(2-aminothiazol-4-yl)-2-(carboxyprop-2-oxyimino)acetamido]-3-(1,4,5-triaminopyrimidinium-2-yl)thiomethyl-3-cephem-4-carboxylate]",MIC,[1],16 µg/mL
same,MIC,[2],128 µg/mL
same,MIC,[3],0.5 µg/mL
same,MIC,[4],0.031 µg/mL
same,MIC,[5],1 µg/mL
same,MIC,[6],≤ 0.008 µg/mL
same,MIC,[7],0.031 µg/mL
same,MIC,[8],0.031 µg/mL
same,MIC,[9],0.031 µg/mL
same,MIC,[10],0.25 µg/mL
same,MIC,[11],≤ 0.008 µg/mL
same,MIC,[12],0.063 µg/mL
same,MIC,[13],0.063 µg/mL
same,MIC,[14],≤ 0.008 µg/mL
same,MIC,[15],2 µg/mL
same,MIC,[16],1 µg/mL
same,MIC,[17],2 µg/mL
same,MIC,[18],0.13 µg/mL
same,MIC,[19],0.13 µg/mL
same,MIC,[20],0.031 µg/mL
same,MIC,[21],0.031 µg/mL
same,MIC,[22],2 µg/mL
same,MIC,[23],4 µg/mL
same,MIC,[24],2 µg/mL
same,MIC,[25],> 128 µg/mL
